Experimental data published in patent publication US9170253B2, “Method and device for measuring multiple physiological properties of cells” (Seahorse Bioscience, priority 2003, dated 2015).

Tests used:
CHO-M3 cells = experiment: Effect of carbachol on O2 consumption, CO2 production and extracellular acidification rates of CHO-M3 cells (stop flow cycles); type: cell-based, Chinese hamster
Text: Chinese hamster ovary (CHO) cells were transfected to over-express the muscarinic receptor subtype m3. The prototype device described in Example 1 was then used to monitor O2 consumption, CO2 production, and extracellular acidification rates, following treatment with the well-known, general acetylcholine receptor agonist, Carbachol.
Materials and Methods: Cell culture reagents were obtained from Gibco BRL (Grand Island, N.Y.). Carbachol was purchased from Sigma Chemical Co. (St. Louis, Mo.). Bicarbonate-free DMEM medium was obtained from Specialty Media (Phillipsburg, N.J.). Polycarbonate membrane snapwells (12 mm diameter, 3 μm pore size) were obtained from Corning (Corning, N.Y.). CHO cells expressing m3-muscarinic receptors (CHO-M3 cells) were obtained from the American Type Tissue Culture (ATCC; Manassas, Va.). Cells were cultured in Ham's F-12 medium supplemented with 10% fetal bovine serum (Hyclone), 1% GlutaMax and 0.1% Gentamicin and were maintained in a 5% CO2 incubator. Cells were subcultured when they reached 80% confluency. CHO-M3 cells were seeded at a density of 2×10^5 onto a snapwell 24 hours prior to use. Immediately prior to testing, cells on snapwells were switched to bicarbonate-free DMEM medium combined with 3.7 g/l NaCl to maintain osmolarity (medium pH 7.4-7.5).
Protocol Description: Probes were calibrated immediately prior to testing. The bottom of the test vessel was filled with bicarbonate-free medium. The snapwell was removed from a 5% CO2 incubator, and the regular growth medium (Ham's F-12) was replaced with bicarbonate-free DMEM medium. Thereafter, the snapwell was placed into the test vessel. Bicarbonate-free medium was pipetted onto the top of the snapwell, and the cover piece of the test vessel was placed gently on top of the snapwell and screwed into place, compressing the assembly. The probe software was started, and the pH, CO2 and O2 analytes were measured over the next 3.5 hours. Following the initial 1.5 hours of perfusion at a rate of 78 μl/min, a series of stop flow (10 minutes each) and medium re-perfusion (10 minutes each, 78 μl/min) cycles were started. During the last 2 minutes of medium re-perfusion cycle number 5, 100 μM carbachol was perfused across the snapwell. During re-perfusion number 6, bicarbonate-free DMEM medium was once again perfused across the snapwell. A rate of change for the analytes was calculated during each stop flow cycle.
The first four series of perfusion/stop flow cycles were done to establish a noise band on the three analytes prior to carbachol treatment during perfusion number 5. Bicarbonate-free medium re-perfusion during per perfusion number 6 and the rates calculated during stop flow number 6 were to assess potential continuing post-carbachol treatment effects on analytes' rates. Resulting data are shown below in Table 6 and in FIG. 11.

C2C12 Myoblasts [1] = experiment: Effect of Rotenone on O2, CO2 and pH flux rates of C2C12 myoblasts (prototype enclosed sample chamber); type: cell-based, murine; parameters: key to O2 Rate / CO2 Rate: flux rate in nmol/minute; settings: for CO2 Rate / O2 Rate / pH Rate: 20 minute measurement
Text: (§1) The device included a cylindrical vessel, fabricated from polycarbonate material, and designed to receive a 12 mm diameter, polycarbonate membrane assembly (Corning Snapwell™ P/N 3802) with a pore size of approximately 3 μm. A cylindrical polycarbonate cover could be temporarily inserted into the vessel to form a smaller sample chamber, approximately 1.5 mm high, with a volume of about 160 microliter (μl). A series of bores around the perimeter of the vessel allowed the insertion of three 500 μm diameter optical fibers. The distal tip of each optical fiber was coated with a fluorescent sensing material to form a biosensor.
(§2) The three biosensors were designed to measure the partial pressures of O2 and CO2, and the pH of the media contained within the vessel. One fiber tip was coated with a matrix of Ruthenium dyes, encapsulated in oxygen permeable silicone rubber, to provide a readout of dissolved oxygen concentration. A second fiber tip was coated with a complex of Fluoroscene dye encapsulated in silicone rubber, to provide a readout of H^+ ion concentration (pH). A third biosensor was fabricated by using a CO2 permeable membrane to create a small reservoir of NaHCO3 surrounding a HydroxyPyrene Trisodium Salt (HPTS) pH sensitive dye. A change in CO2 concentration in the cell media would then cause a change in pH of this encapsulated reagent resulting in a measurable change in the fluorescent properties of the pH sensitive dye, and this change was calibrated to provide quantitative CO2 concentration data.
(§3) To determine the extracellular flux rates of O2 and CO2, the rates of change of partial pressures were divided by volume of each analytes available in the media (moles) to result in a value expressed in nmol/minute. The rate of acidification was expressed in mpH units/min (multiplied by 20 for scaling on the chart), but can easily be shown as protons per minute by calculating the number of available […] in the media buffer within the known sample volume.
Rotenone is known to inhibit cellular respiration by blocking NADH dehydrogenase in the respiratory chain. C2C12 Myoblasts were used to show this effect. 1.5×10^5 C2C12 myoblasts were seeded on membranes, incubated and placed in the measurement system along with 150 μl NaHCO3-free DMEM medium of as described in Example 3.
(§4) The dissolved concentrations of O2 and CO2, and the pH in the media were then measured every 5 seconds for a period of 20 minutes in order to determine a control baseline for each analyte flux. Once the baseline was established, a sequence of experiments were performed where varying doses of Rotenone (obtained from Sigma, St. Louis Mo.) were added to the cell media and a 20 minute measurement of analyte flux rates was performed. A control experiment was also performed using the highest dose of Rotenone, but without cells.

C2C12 Myoblasts [2] = experiment: Effect of 2,4 DNP on O2, CO2 and pH flux rates of C2C12 myoblasts (prototype enclosed sample chamber); type: cell-based, murine; settings: for CO2 Rate / O2 Rate / pH Rate: 20 minute measurement
Text: as §1, §2, §3
In this experiment, C2C12 myoblasts were seeded on 12 mm diameter polycarbonate membranes and incubated for 12 hours. Wells were then removed from the incubator, inspected visually, and placed into the measurement device. 160 μl of NaHCO3-free DMEM medium was then added, and the device was assembled to form an enclosed sample chamber.
as §4, with “2,4 DNP” for “Rotenone”, “2,4 DNP,” for “Rotenone,”

[3] = Stop Flow 5, after 2-minute exposure to 100 μM carbachol
[4] = Stop Flow 6, post-carbachol, after re-perfusion with bicarbonate-free medium
[5] = Rotenone dose 25 (unit not given)
[6] = Rotenone dose 50 (unit not given)
[7] = Rotenone dose 100 (unit not given)
[8] = Rotenone dose 200 (unit not given)

Question: Which results are given for `C[N+](C)(C)CCOC(N)=O` [carbachol, Carbachol]?
Answer: CO2 rate versus baseline (CHO-M3 cells; 2-minute exposure to carbachol): increases above baseline levels; O2 rate versus baseline (CHO-M3 cells; 2-minute exposure to carbachol): increases above baseline levels; change in pH rate versus average baseline (CHO-M3 cells; 2-minute exposure to carbachol, 0.01 PHU/min baseline): doubling; CO2 Rate (CHO-M3 cells; [3]): 0.20 nmol/min; O2/CO2 Ratio (CHO-M3 cells; [3]): 1.99; O2/pH Ratio (CHO-M3 cells; [3]): 0.26; O2 Rate (CHO-M3 cells; [3]): 0.40 nmol/min; pH Rate (CHO-M3 cells; [3]): 0.02 PHU/min; CO2 Rate (CHO-M3 cells; [4]): 0.10 nmol/min; O2/CO2 Ratio (CHO-M3 cells; [4]): 3.34; O2/pH Ratio (CHO-M3 cells; [4]): 0.29; O2 Rate (CHO-M3 cells; [4]): 0.33 nmol/min; pH Rate (CHO-M3 cells; [4]): 0.01 PHU/min; Post-treatment rates versus pre-treatment values (CHO-M3 cells; stop flow period number 6): essentially returned to pre-treatment values

Question: Which results are given for `C=C(C)[C@H]1Cc2c(ccc3c2O[C@@H]2COc4cc(OC)c(OC)cc4[C@@H]2C3=O)O1` [Rotenone]?
Answer: CO2/O2 (C2C12 Myoblasts [1]; [5]): 4.00; O2/pH (C2C12 Myoblasts [1]; [5]): 0.17; CO2 Rate (C2C12 Myoblasts [1]; [5]): 1.76; O2 Rate (C2C12 Myoblasts [1]; [5]): 0.44; pH Rate (C2C12 Myoblasts [1]; [5]): 0.026; CO2/O2 (C2C12 Myoblasts [1]; [6]): 8.02; O2/pH (C2C12 Myoblasts [1]; [6]): 0.08; CO2 Rate (C2C12 Myoblasts [1]; [6]): 2.08; O2 Rate (C2C12 Myoblasts [1]; [6]): 0.26; pH Rate (C2C12 Myoblasts [1]; [6]): 0.031; CO2/O2 (C2C12 Myoblasts [1]; [7]): 12.18; O2/pH (C2C12 Myoblasts [1]; [7]): 0.09; CO2 Rate (C2C12 Myoblasts [1]; [7]): 2.34; O2 Rate (C2C12 Myoblasts [1]; [7]): 0.19; pH Rate (C2C12 Myoblasts [1]; [7]): 0.023; CO2/O2 (C2C12 Myoblasts [1]; [8]): 69.84; O2/pH (C2C12 Myoblasts [1]; [8]): 0.02; CO2 Rate (C2C12 Myoblasts [1]; [8]): 2.24; O2 Rate (C2C12 Myoblasts [1]; [8]): 0.04; pH Rate (C2C12 Myoblasts [1]; [8]): 0.027; O2 consumption rate (effect of treatment) (C2C12 Myoblasts [1]; over doses of Table 4): dose-dependent decrease

Question: `O=[N+]([O-])c1ccc(O)c([N+](=O)[O-])c1` [2,4 DNP] was tested. Which CO2/O2 (C2C12 Myoblasts [2]; 2,4 DNP dose 10 μm) did it give?
Answer: 2.18

Question: And the O2/pH (C2C12 Myoblasts [2]; 2,4 DNP dose 10 μm)?
Answer: 0.46

Question: What about the “CO2 Rate” value (C2C12 Myoblasts [2]; 2,4 DNP dose 10 μm) of the same compound?
Answer: 2.78 nM/min

Question: And the “O2 Rate” value (C2C12 Myoblasts [2]; 2,4 DNP dose 10 μm)?
Answer: 1.26 nM/min

Question: And the “pH Rate” value (C2C12 Myoblasts [2]; 2,4 DNP dose 10 μm)?
Answer: 0.028 pH/min

Question: And the CO2/O2 (C2C12 Myoblasts [2]; 2,4 DNP dose 50 μm)?
Answer: 2.13

Question: What about the O2/pH (C2C12 Myoblasts [2]; 2,4 DNP dose 50 μm) of the same compound?
Answer: 0.64

Question: What about the “CO2 Rate” value (C2C12 Myoblasts [2]; 2,4 DNP dose 50 μm) of the same compound?
Answer: 4.24 nM/min

Question: What about the “O2 Rate” value (C2C12 Myoblasts [2]; 2,4 DNP dose 50 μm) of the same compound?
Answer: 1.99 nM/min

Question: And the “pH Rate” value (C2C12 Myoblasts [2]; 2,4 DNP dose 50 μm)?
Answer: 0.031 pH/min

Question: What about the CO2/O2 (C2C12 Myoblasts [2]; 2,4 DNP dose 100 μm) of the same compound?
Answer: 2.00

Question: And the O2/pH (C2C12 Myoblasts [2]; 2,4 DNP dose 100 μm)?
Answer: 0.73

Question: And the “CO2 Rate” value (C2C12 Myoblasts [2]; 2,4 DNP dose 100 μm)?
Answer: 4.59 nM/min

Question: And the “O2 Rate” value (C2C12 Myoblasts [2]; 2,4 DNP dose 100 μm)?
Answer: 2.30 nM/min

Question: What about the “pH Rate” value (C2C12 Myoblasts [2]; 2,4 DNP dose 100 μm) of the same compound?
Answer: 0.032 pH/min

Question: And the “O2 consumption rates (effect of treatment)” value (C2C12 Myoblasts [2]; over doses of Table 3)?
Answer: dose-dependent increase

Question: What about the “extracellular acidification (effect of treatment)” value (C2C12 Myoblasts [2]; over doses of Table 3) of the same compound?
Answer: little effect
